Experiment [1] relates to IgG fraction of the antiserum raised to immunogen A (hapten A-BSA). Type of experiment: binding, sheep. Particulars: for IC50, OP: concentration of test opiate that causes 50% displacement of signal, Table 3, Example 13 (a); for IC50: standard concentration which produces 50% B/B0. The protocol:
Aqueous solutions of the immunogens prepared in Examples 7 and 8 were formulated with Freund's Complete Adjuvant (FCA) to form emulsions consisting of 4 mg/ml immunogen A and 2 mg/ml immunogen B in 50% (v/v) FCA. Three sheep were immunized with each emulsion (1° immunizations), 0.25 ml being subcutaneously injected at each of four sites in the flank of each animal. The next immunizations (first boosts) contained 2 mg/ml immunogen A and 1 mg/ml immunogen B. Subsequent immunizations (boosts […]) contained 1 mg/ml of each immunogen. All boosts were emulsified in 50% (v/v) Freund's Incomplete Adjuvant (FIA) and administered to the appropriate sheep in the same manner as the 1° immunizations, at monthly intervals for 1 year. Blood sampling took place 7 to 14 days after each boost. Each sample was processed to produce antiserum which was further purified by caprylic acid and ammonium sulfate precipitation to yield an immunoglobulin G (IgG) fraction. The IgG fraction was evaluated by competitive ELISA microtiter plate assay, as described in Example 12 below.
(a) The wells of an enhanced binding 96-well polystyrene microtiter plate were coated with the IgG fraction of the antiserum raised to immunogen A (hapten A-BSA) (Example 7), diluted in 10 mM Tris, pH8.5 (125 μl/well). The appropriate antibody coating dilution was determined using standard ELISA chequerboard techniques. The plate was incubated for 2 hours at 37° C., washed 4 times with Tris-buffered saline containing Tween 20 (TBST) and tapped dry. […] 75 μl of conjugate A (hapten A-HRP) (Example 10), diluted in Tris buffer containing EDTA, D-mannitol, sucrose, thimerosal and BSA, was added to each of the wells. The appropriate dilution of conjugate was also determined using standard ELISA chequerboard techniques. The plate was incubated at 37° C. for 2 hours. The excess unbound conjugate was removed by washing 6 times over a 10 minute period with TBST. 125 μl of tetramethylbenzedine (TMB) substrate solution was added to each well of the plate that was then incubated for 15 to 20 minutes in the dark at room temperature. The reaction was terminated by addition of 125 μl 0.2M H2SO4 to each well. The absorbance was then measured at 450 nm using a microtiter plate reader.

Experiment [2] has as its system IgG fraction of the antiserum raised to immunogen B (hapten B-BSA). Type of experiment: binding, sheep. The conditions noted are these: for IC50, OP: concentration of test opiate that causes 50% displacement of signal, Table 3, Example 13 (b); for IC50: standard concentration which produces 50% B/B0.
The mark [3] stands for this setting: percentage cross-reactivity based on specificity to oxycodone, Table 1.
Setting [4] is: standard concentration 0.5 ng/ml.
[5] abbreviates: standard concentration 25 ng/ml.
The mark [6] stands for this setting: standard concentration 100 ng/ml.
Setting [7] is: standard concentration 250 ng/ml.
Setting [8] is: standard concentration 500 ng/ml.
Setting [9] is: percentage cross-reactivity based on specificity to oxycodone, Table 2.
[10] abbreviates: standard concentration 10 ng/ml.
Setting [11] is: standard concentration 50 ng/ml.
Setting [12] is: standard concentration 1000 ng/ml.
Where [13] appears, read: standard concentration 2000 ng/ml.

Each structure is given as a SMILES string. Values after ≈ are worked out from the molar mass of the structure shown. Like-named read-outs stand apart in the source and are kept apart here.

Consider `COc1ccc2c3c1O[C@H]1[C@@H](O)C=C[C@H]4[C@@H](C2)N(C)CC[C@@]341` [Codeine], for which the entries for the “% CR” value in experiment [1] and in experiment [2] were 2.2% and <2.7%, respectively. For the same molecule, the “IC50, OP” value in experiment [1] is 0.3867 µg/mL (≈ 1.29 µM); in experiment [2] it was >2 µg/mL.
Taken in the same sequence, the figures for `COc1ccc2c3c1O[C@H]1[C@@H](O)CC[C@H]4[C@@H](C2)N(C)CC[C@@]341` [Dihydrocodone] were <1.7%, <2.7%, >0.5 µg/mL and >2 µg/mL.
For the molecule `COc1ccc2c3c1O[C@H]1C(=O)CC[C@H]4[C@@H](C2)N(C)CC[C@]314` [Hydrocodone], the “% CR” value in experiment [1] was <1.7%; in experiment [2] it was 75.6%. The “IC50, OP” value in experiment [1] is >0.5 µg/mL; in experiment [2], 0.0724 µg/mL (≈ 0.242 µM).
For `CN1CC[C@]23c4c5ccc(O[C@@H]6O[C@H](C(=O)O)[C@@H](O)[C@H](O)[C@H]6O)c4O[C@H]2[C@@H](O)C=C[C@H]3[C@H]1C5` [Morphine-3-glucuronide], in that order: <1.7%, <2.7%, >0.5 µg/mL and >2 µg/mL.
Take `CN1CC[C@]23c4c5ccc(O)c4O[C@H]2[C@@H](O)C=C[C@H]3[C@H]1C5` [Morphine]: the “% CR” value is recorded as <1.7% in experiment [1] and <2.7% in experiment [2].
Consider `COc1ccc2c3c1O[C@H]1C(=O)CC[C@@]4(O)[C@@H](C2)NCC[C@]314` [Noroxycodone], for which the “% CR” value in experiment [1] (setting [3]) was <1.7%; in experiment [2] (setting [9]), 23.4%. The “% B/B0” value in experiment [1] (setting [4]) came out at 99.3%; in experiment [1] (standard concentration 1 ng/ml), 100.2%; in experiment [1] (standard concentration 5 ng/ml), 100.3%; in experiment [1] (setting [5]) it was 99.3%; in experiment [1] (setting [6]), 97.7%; in experiment [1] (setting [7]), 96.1%. Besides, the “% B/B0” value in experiment [1] (setting [8]) came out at 92.8%; in experiment [2] (setting [10]), 90.7%; in experiment [2] (setting [11]) it was 70.9%; in experiment [2] (setting [6]), 65.0%; in experiment [2] (setting [7]), 52.0%; in experiment [2] (setting [8]), 43.7%. Moreover, the “% B/B0” value in experiment [2] (setting [12]) is given as 32.5%; in experiment [2] (setting [13]) it was 24.4%. Besides, the IC50 in experiment [1] (Table 1) is >0.5 µg/mL; in experiment [2] (Table 2), 0.2335 µg/mL (≈ 0.775 µM).
For the molecule `COc1ccc2c3c1O[C@H]1C(=O)CC[C@@]4(O)[C@@H](C2)N(C)CC[C@]314` [Oxycodone], the “% CR” value in experiment [1] (setting [3]) and in experiment [2] (setting [9]) was 100.0% in each case. The “% B/B0” value is 88.6% in experiment [1] (setting [4]); 82.2% in experiment [1] (standard concentration 1 ng/ml); 36.1% in experiment [1] (setting [5]); 22.2% in experiment [1] (setting [6]); 14.8% in experiment [1] (setting [7]); 10.1% in experiment [1] (setting [8]). For the same molecule, the “% B/B0” value in experiment [2] (setting [10]) is 75.7%; in experiment [2] (setting [11]), 50.1%; in experiment [2] (setting [6]) it was 41.9%; in experiment [2] (setting [8]), 17.8%; in experiment [2] (setting [12]), 12.2%; in experiment [2] (setting [13]), 8.3%. In experiment [1] (Table 1), this molecule displayed a concentration for half-maximal inhibition (IC50) of 0.0087 µg/mL (≈ 0.0276 µM).
With `CN1CC[C@]23c4c5ccc(O)c4O[C@H]2C(=O)CC[C@@]3(O)[C@H]1C5` [Oxymorphone], the “% CR” value is recorded as 26.5% in experiment [1] (setting [3]) and <2.7% in experiment [2] (setting [9]). The “% B/B0” value worked out at 93.0% in experiment [1] (setting [4]); 90.5% in experiment [1] (standard concentration 1 ng/ml); 75.1% in experiment [1] (standard concentration 5 ng/ml); 57.1% in experiment [1] (setting [5]); 39.2% in experiment [1] (setting [6]); 29.2% in experiment [1] (setting [7]). For the same molecule, the “% B/B0” value was 24.4% in experiment [1] (setting [8]); 103.8% in experiment [2] (setting [10]); 97.3% in experiment [2] (setting [11]); 95.0% in experiment [2] (setting [6]); 93.5% in experiment [2] (setting [7]); 90.1% in experiment [2] (setting [8]). Besides, the figures for the “% B/B0” value in experiment [2] (setting [12]) and in experiment [2] (setting [13]) were 84.2% and 76.7%, respectively. Further, the IC50 in experiment [1] (Table 1) is 0.0328 µg/mL (≈ 0.109 µM); in experiment [2] (Table 2), >2 µg/mL.
For `COC1=CC=C2[C@H]3Cc4ccc(OC)c5c4[C@@]2(CCN3C)[C@H]1O5` [Thebaine], in experiment [1], the “% CR” value was 4.3% and the “IC50, OP” value came out at 0.2032 µg/mL (≈ 0.653 µM). In experiment [2], the “% CR” value is reported as <2.7% and the “IC50, OP” value was >2 µg/mL.

Usually IC50 stands for the concentration that inhibits the measured activity by half.

Values taken from patent publication US7026134B2 (priority 2001, dated 2006).
